According to US7432288B2, “Pyrrole-2,5-dione derivatives as Liver X receptor modulators” (AstraZeneca AB, priority 2003, dated 2008):

Biological target: T1, LXRalpha and/or beta (human LXR ligand binding domain)
T1 construct: fused on or other part: His-tag (6xHis) on the LXR-LBD
Assay: Co-activator recruitment assay (time-resolved fluorescence, SRC-1 peptide)
Assay type: biochemical
Conditions: LXR subtype (alpha or beta) not stated for these values; 22-R Hydroxycholesterol at 50 μM as 100% control; read-out: EC50 in coactivator recruitment assays
Description: The Ligand Binding Domain (LBD) of human LXRalpha (amino acid 205-447) and LXRbeta (amino acid 216-461) was produced by recombinant techniques in E coli. A fragment of the human Steroid Receptor Co-Activator-1 (SRC-1) was produced as a synthetic peptide. An anti-6His-antibody coupled with Europium (Eu^3+) was used to recognize the His-tag on the LXR-LBD and Allophycocyanin (APC) coupled to streptavidin was used to recognize the biotinylated SRC-1. Agonist binding to LXRalpha or LXRbeta enhances the affinity of LXR towards SRC-1 and thereby brings Eu^3+ and APC in close proximity. Eu^3+ is excited at 337 nm and emitts light at 620 nm. This emission, when in close proximity, excites APC to emit light at 665 nm.
Dilution plates with compounds in DMSO were further diluted in buffer {20 mM [Tris(hydroxymethyl)aminomethane] pH 7.5, 0.125% CHAPS {3-[(3-Cholamidopropyl)dimethylammonio]-1-propanesulfonate}, 2 mM DTT (Dithiothreitol) and 0.05% BSA (Bovine Serum Albumin)} in order to reduce DMSO concentration, 0.5 μl to 13.5 μl. To this, 6 μl assay mix was added and the plates (384-well V-groove plates) were incubated at room temperature for 60 to 80 min. […] Time-resolved fluorescence readings were done in a Wallac Victor reader at 665 nm followed by reading at 615 nm. […]

EC50 [nM]	Structure (SMILES)
150	COc1ccc(NC2=C(c3ccccc3)C(=O)N(Cc3ccc(N(C)C)cc3)C2=O)cc1 [Example 13, 1-[4-(Dimethylamino)benzyl]-3-[(4-methoxyphenyl)amino]-4-phenyl-1H-pyrrole-2,5-dione]
110	COc1ccc(NC2=C(c3ccccc3)C(=O)N(Cc3cc(C)on3)C2=O)cc1 [Example 22, 3-[(4-Methoxyphenyl)amino]-1-[(5-methylisoxazol-3-yl)methyl]-4-phenyl-1H-pyrrole-2,5-dione]
